Like-named read-outs stand apart in the source and are kept apart here.
What was measured:
SARS-CoV-2 M^pro/3CL^pro = SARS-CoV-2 M^pro/3CL^pro (Severe acute respiratory syndrome coronavirus 2, UniProt P0DTD1); test: biochemical; settings: for IC50 fold change to 5h (in parentheses): Table 1
in vitro = settings: African green monkey, CC50, Table 1; VeroE6 cells, WST-8
[1] = system: SARS-CoV-2 WK-521 (ancestral Wuhan strain); type: cell-based; settings: Table 2; VeroE6 cells, RNA-qPCR
[2] = mice
[3] = system: SARS-CoV-2 WK-521 infected VeroE6 cells; settings: concentrations up to 100 μM (Figure S3)
in vivo = settings: female, Jcl:ICR (ICR), mouse, iv, 2 mg/kg, mice, i.v. 2.0 mg/kg, 240 min

Row | SMILES | IC50 (SARS-CoV-2 M^pro/3CL^pro) [nM] | IC50 fold change to 5h (in parentheses) (SARS-CoV-2 M^pro/3CL^pro) | CC50 (in vitro) [nM] | EC75 [1] [nM] | EC99 [1] [µM] | blood concentrations after administration ([2]; i.p. 20 mg/kg) | blood concentrations after administration ([2]; i.v. 2.0 mg/kg) | blood concentrations after administration ([2]; p.o.) | cytotoxicity in immunostaining experiments [3] | half-life (in vivo) [min] | half-life, times longer than that of the parent compound ([2]; i.v. 2.0 mg/kg, relative to 5h (2))
1 | COc1ccc(F)c2[nH]c(C(=O)N[C@@H](CC(C)C)C(=S)N[C@@H](C[C@@H]3CCNC3=O)C(=O)c3nc4c(F)cccc4s3)cc12 [Compound 4] | 370 ± 15 | 1.0 | > 100000 | 590 ± 30 | 4.1 ± 3.1 | maintained remarkably higher blood concentrations than compound 3 | higher blood concentrations of compound 4 were maintained compared with those of compound 3 after 60 min, and even 240 min | maintained remarkably higher blood concentrations for the first day than compound 3 | no significant cytotoxicity at concentrations up to 100 μM |  | 
2 | COc1ccc(F)c2[nH]c(C(=O)N[C@@H](CC(C)C)C(=O)N[C@@H](C[C@@H]3CCNC3=O)C(=O)c3nc4c(F)cccc4s3)cc12 [Compound 3] | 37 ± 1 | 0.10 | > 100000 | 460 ± 20 | 0.97 ± 0.0020 |  |  |  | no significant cytotoxicity at concentrations up to 100 μM |  | 
3 | CC(C)(C)[C@H](NC(=O)C(F)(F)F)C(=O)N1C[C@H]2[C@@H]([C@H]1C(=O)N[C@H](C#N)C[C@@H]1CCNC1=O)C2(C)C [PF-07321332 (1), Nirmatrelvir, reference compound] |  |  | > 100000 | 4400 ± 210 | 9.7 ± 0.015 |  |  |  |  | < 23 | 
4 | COc1cccc2[nH]c(C(=O)N[C@@H](CC(C)C)C(=S)N[C@@H](C[C@@H]3CCNC3=O)C(=O)c3nc4ccccc4s3)cc12 [Compound 60] | 990 ± 60 | 2.8 | > 100000 |  |  |  | High blood concentrations of compound 60 were maintained after 60 min, and even 240 min had passed |  |  | 50 to 60 | 2–3 times
5 | CC(C)C[C@H](NC(=O)c1cc2c(F)cc(F)cc2[nH]1)C(=O)N[C@@H](C[C@@H]1CCNC1=O)C(=O)c1nc2cc(F)ccc2s1 [Compound 54] | 540 ± 20 | 1.5 | > 100000 |  |  |  |  |  |  |  | 
6 | CC(C)C[C@H](NC(=O)c1cc2c(F)ccc(F)c2[nH]1)C(=O)N[C@@H](C[C@@H]1CCNC1=O)C(=O)c1nc2cc(F)ccc2s1 [Compound 44] | 120 ± 10 | 0.34 | > 100000 |  |  |  |  |  |  | ~30 | 
7 | CCC(CC)COC(=O)[C@H](C)N[P@](=O)(OC[C@H]1O[C@@](C#N)(c2ccc3c(N)ncnn23)[C@H](O)[C@@H]1O)Oc1ccccc1 [Remdesivir, reference compound] |  |  | > 100000 |  |  |  |  |  |  |  | 

Reference: article PMC9623849 (iScience, 2022)
